Results taken from ChEMBL document CHEMBL5614391, “GPX4 allosteric activators inhibit ferroptosis and exert myocardial protection in doxorubicin-induced myocardial injury mouse model” (Eur J Med Chem, 2024).

Key:
[1] = target: T1, Phospholipid hydroperoxide glutathione peroxidase GPX4 (Homo sapiens, UniProt P36969); assay: Binding affinity to GPX4 (unknown origin) assessed as dissociation constant by surface plasmon resonance
T1 sequence (P36969 whole entry): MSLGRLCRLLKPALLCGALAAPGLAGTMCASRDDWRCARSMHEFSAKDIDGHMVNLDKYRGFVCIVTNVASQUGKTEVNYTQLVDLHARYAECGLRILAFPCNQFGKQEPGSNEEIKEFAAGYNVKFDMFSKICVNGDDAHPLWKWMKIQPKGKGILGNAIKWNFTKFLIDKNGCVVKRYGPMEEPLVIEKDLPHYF

[2] = system: HT-1080; assay: Reversal of erastin induced cell death in human HT-1080 cells assessed as cell viability preincubated for 1 hr followed by erastin addition and measured after 24 hrs by CCK8 method

Row | Compound | Kd [1] [µM] | EC50 [2] [µM]
1 | COc1ccc(NCc2cccn2-c2nnc(N3CCCCC3)s2)cc1OC | 5.69 | –
2 | COc1ccc(NCc2cccn2-c2cnc(C)s2)cc1OC | 8.24 | –
3 | COc1ccc(NCc2cccn2-c2nc3ccccc3s2)cc1OC | 4.99 | –
4 | COc1ccc(NCc2cccn2-c2ccc(N3CCN(C)CC3)s2)cc1OC | 6.9 | –
5 | COc1ccc(NCc2cccn2-c2nncs2)cc1OC | 7.91 | –
6 | COc1ccc(NCc2ccnn2-c2nnc(N3CCN(C)CC3)s2)cc1OC | 4.64 | –
7 | COc1ccc(NCc2cccn2-c2nnc(NC(=O)c3ccc(F)cc3)s2)cc1OC | 4.69 | –
8 | COc1ccc(NCc2cccn2-c2nnc(N3CCN(C)CC3)s2)cc1OC | 5.86 | 19.2
9 | COc1ccc(NCc2cccn2-c2nnc(N(C)C)s2)cc1OC | 5.22 | –
10 | CCN(CC)c1nnc(-n2cccc2CNc2ccc(OC)c(OC)c2)s1 | 9.8 | –
11 | COc1ccc(NCc2cccn2-c2nnc(NC(=O)c3ccccc3F)s2)cc1OC | 10.5 | –
12 | COc1ccc(NCc2cccn2-c2nnc(N3CCN(C)CC3)s2)cc1 | 7.87 | –
13 | COc1ccc(NCc2cccn2-c2nnc(N3CCOCC3)s2)c(OC)c1 | 10.5 | –
14 | CCOc1cc(NCc2cccn2-c2nnc(N3CCN(C)CC3)s2)ccc1OC | 10.7 | –
15 | COc1ccc(NCc2cccn2-c2nnc(N3CCOCC3)s2)cc1OC | 27.1 | –

These reach a lower Kd [1]. Values come first.

Row | Kd [1] [µM] | Compound | EC50 [2] [µM]
16 | 4.48 | COc1ccc(NCc2cccn2-c2nnc(C)s2)cc1OC | –
17 | 4.23 | COc1ccc(NCc2cccn2-c2nn3ccnc3s2)cc1OC | –
18 | 4.06 | COc1ccc(NCc2cc3ccccc3n2-c2nnc(N3CCN(C)CC3)s2)cc1OC | –
19 | 3.43 | COc1ccc(NCc2cncn2-c2nnc(N3CCN(C)CC3)s2)cc1OC | –
20 | 2.1 | COc1ccc(NCc2cccn2-c2cccc(N3CCN(C)CC3)n2)cc1OC | –
21 | 1.27 | COc1ccc(NCc2cccn2-c2nnc(NC(=O)c3ccccc3)s2)cc1OC | –
22 | 1.14 | COc1ccc(NCc2cccn2-c2ccc(Cl)cc2)cc1OC | –
23 | 1.05 | COc1ccc(NCc2cccn2-c2cccc(Cl)n2)cc1OC | –
24 | 0.931 | COc1ccc(NCc2cccn2-c2nnc(NC(=O)c3cccc(F)c3)s2)cc1OC | –
25 | 0.835 | CN1CCN(c2nnc(-n3cccc3CNc3ccc4c(c3)OCCO4)s2)CC1 | –
26 | 0.717 | COc1ccc(NCc2cccn2-c2nn3ccnc3s2)c(OC)c1 | –
27 | 0.426 | COc1ccc(NCc2cccn2-c2nnc(N3CCN(C)CC3)s2)c(OC)c1 | 7.8
28 | 0.17 | COc1ccc(NCc2cccn2-c2nnc(N)s2)cc1OC | –
29 | 0.036 | CCCN1CCN(c2nnc(-n3cccc3CNc3ccc(OC)c(OC)c3)s2)CC1 | –
